Experimental data from patent US20230010299A1, “HETEROCYCLIC TRPML1 AGONISTS” (LIBRA THERAPEUTICS, INC., priority 2019, published 2023).

Legend:
[1] = system: autophagy reporter Rosella (LC3 tag) in HeK293 cell line; experiment: Autophagy assay (reporter Rosella, imaging); format: cell-based; conditions: Homo sapiens; HeK293 cells stably expressing reporter Rosella; 18 hours incubation; reference Torin-1 1 μM as max signal; read-out: Secondary Assays Autophagy qAC50
Protocol: Buffers and Reagents • Tyrode's buffer with 2 mM Ca^2+ in-house solution (130 mM NaCl, 5 mM KCl, 2 mM CaCl2), 1 mM MgCl2, 5 mM NaHCO3, 20 mM HEPES in water at pH 7.4; sterile filtered) • DMSO (Sigma) • Bis-benzimide H 33342 trihydrochloride (Hoechst 33342; Sigma-Aldrich) • Reference molecule (agonist): Torin-1, (#4247, Tocris) stock 1.2 mM in DMSO, stored at −20° C.
Reporter of Autophagy and Cell Line
Reporter Rosella: a fluorescent-based chimera constitutes by two fluorescent proteins, Green and Red variants, acting as a bimodal indicator of pH. […] The reporter is fused to sequence for autophagosome localization (LC3 tag).
The reporter Rosella have been stably expressed in HeK293 cell line and used as read-out.
Experiments have been performed in 384 MTP poly-lysine coated well format. Cells have been seeded in 384-w at a density of 6000 cells/well in 25 μl/well complete growth medium without antibiotics. Twenty-four hours later, cells have been treated with compounds and incubated for further 18 hours. Then the cells have been imaged and assayed for the response to various compounds using the reporter for autophagy expressed in the cells as readout.
The experiments were performed in a 384-well format according to the following procedure: • 24 h after seeding, cells were incubated with compounds at the desired concentration, and with the reference molecule (agonist) Torin-1 at a top concentration of 1 μM (max signal), for 18 hours at 37° C. and 5% CO2. The final percentage of DMSO was 0.3% in all the conditions. • Then the culture medium was carefully removed to avoid cells detachment and to discard red phenol into the medium and that can interfere with the measurements. • Staining of the nuclei was obtained by incubating the cells with 8 μM/well of Hoechst 3342 in standard Tyrode's buffer for 20 min at RT • Then the cells were carefully washed two times with standard Tyrode's buffer • Finally, the samples were acquired by recording three fluorescence emission channels (green, red and blue) at 20× magnification and with at least 3-4 fields of view per well in an Operetta CLS microscope (PerkinElmer). • Image analysis was performed by using Harmony software (PerkinElmer). The image analysis involved the following steps: flat-field illumination correction, nuclei segmentation, cell segmentations and identification of vesicles/granules within the cytosol compartments and representing the autophagy vesicles. Measurements of signal intensity ratio (Green to Red) and number of autophagy vesicles per cells were used to obtain information on the effects of compounds on the autophagy flux. • Data from image analysis measurements were finally loaded and analyzed for normalization and fitting procedures in Genedata Screener© software.

[2] = molecular target: T1, TRPML1 (Homo sapiens, UniProt Q9GZU1); experiment: Cellular TRPML1 assay (FLIPR TETRA, GCaMP6f calcium read-out); format: cell-based; conditions: HEK T-REx/GCaMP6f/TRPML1 cells; Ca2+ response over 300 s, normalized to ML-SA1 50 μM; Ca2+ free or Optimem condition not given; read-out: Ec50 (Activity of TRPML1 agonists)
T1 construct: expressed in transfected cells
In short: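 HEK T-REx cells stably expressing TRPML1 and GCaMP6f, assayed 24 h after seeding in Ca2+-free Tyrode's (pH 7.4) or Opti-MEM. Compounds injected on FLIPR Tetra (0.5% DMSO) in dose-response from 100 μM (1:2) or 50 μM (1:3.16); fluorescence kinetics 300 s, referenced to 50 μM ML-SA1 stimulator control.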

T1 sequence (Q9GZU1 whole entry): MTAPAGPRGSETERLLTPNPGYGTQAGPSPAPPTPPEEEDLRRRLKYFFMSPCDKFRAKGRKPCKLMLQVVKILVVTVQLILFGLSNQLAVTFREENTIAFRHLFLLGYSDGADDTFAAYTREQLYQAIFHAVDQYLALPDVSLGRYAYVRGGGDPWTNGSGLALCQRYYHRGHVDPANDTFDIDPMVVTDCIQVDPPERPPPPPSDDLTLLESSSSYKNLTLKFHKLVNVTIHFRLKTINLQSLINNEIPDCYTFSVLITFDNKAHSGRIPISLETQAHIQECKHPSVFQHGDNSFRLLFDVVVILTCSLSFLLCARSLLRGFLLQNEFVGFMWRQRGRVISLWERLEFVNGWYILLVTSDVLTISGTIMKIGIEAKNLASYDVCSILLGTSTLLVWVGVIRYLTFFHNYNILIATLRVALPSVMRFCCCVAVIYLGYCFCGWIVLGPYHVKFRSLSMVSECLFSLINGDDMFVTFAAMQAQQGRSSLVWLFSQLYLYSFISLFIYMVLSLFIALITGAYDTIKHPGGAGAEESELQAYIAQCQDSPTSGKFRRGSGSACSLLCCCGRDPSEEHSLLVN

SMILES | EC50 [2] [nM] | EC50 [1] [nM]
CN(C)S(=O)(=O)c1ccc(S(=O)(=O)NC2CCCCC2N2CCC(Oc3ccccc3)CC2)cc1 (racemic) [Example 57, N1,N1-dimethyl-N4-[2-(4-phenoxypiperidin-1-yl)cyclohexyl]benzene-1,4-disulfonamide] | 3000 | 1800
CN(C)S(=O)(=O)c1ccc(S(=O)(=O)Nc2ccccc2N2CCC(Oc3ccccn3)CC2)cc1 [Example 75, N1,N1-dimethyl-N4-{2-[4-(pyridin-2-yloxy)piperidin-1-yl]phenyl}benzene-1,4-disulfonamide] | 1600 | 170
CN(C)S(=O)(=O)c1ccc(S(=O)(=O)Nc2ccccc2N2CCC(Oc3cnccn3)CC2)cc1 [Example 77, N1,N1-dimethyl-N4-{2-[4-(pyrazin-2-yloxy)piperidin-1-yl]phenyl} benzene-1,4-disulfonamide] | 1700 | 250

The next lines start with results.

EC50 [2] [nM] | SMILES | EC50 [1] [nM]
2100 | CN(C)S(=O)(=O)c1ccc(S(=O)(=O)Nc2ccccc2N2CCN(C(=O)OC(C)(C)C)CC2)cc1 [Example 13, tert-butyl 4-{2-[4-(dimethylsulfamoyl)benzenesulfonamido]phenyl}piperazine-1-carboxylate] | 520
1700 | CN(C)S(=O)(=O)c1ccc(S(=O)(=O)Nc2ccccc2N2CCCCC2)cc1 [Example 6, N1,N1-dimethyl-N4-[2-(piperidin-1-yl)phenyl]benzene-1,4-disulfonamide] | 4400
1300 | CN(C)S(=O)(=O)c1ccc(S(=O)(=O)Nc2ccccc2N2CCC(C(=O)OC(C)(C)C)CC2)cc1 [Example 76, f-butyl 1-{2-[4-(dimethylsulfamoyl)benzenesulfonamido]phenyl}piperidine-4-carboxylate] | 59
